Read-outs that look alike come from different tables or passages of the source.
How the values were obtained:
Colo320DM cells = experiment: CellTiter-Glo Luminescent cell viability assay; format: cell-based; details: System: Cell (Colo320DM)
[1] = system: CRC organoids (APC−/TP53−/SMAD4− triple knockout); experiment: CellTiter-Glo cytotoxicity assay on CRISPR-engineered CRC organoids; details: read-out: IC50 (uM) ± SD
HT29 cells = experiment: CellTiter-Glo Luminescent cell viability assay; format: cell-based; details: Homo sapiens, HT-29; System: Cell (HT29)
Caco2 cells = experiment: CellTiter-Glo Luminescent cell viability assay; format: cell-based; details: Homo sapiens, Caco-2; System: Cell (Caco2)
HCT15 cells = experiment: CellTiter-Glo Luminescent cell viability assay; format: cell-based; details: System: Cell (HCT15)
[2] = system: CRC organoids engrafted in swine small intestine tissue; experiment: ex vivo CRC organoid-in-intestine platform, GFP+ tumor cells by flow cytometry; format: cell-based; details: for IC50: System: Tissue (pig ex vivo colorectal cancer platform), 24 hours drug treatment
P-gp = P-gp (Homo sapiens, UniProt P08183); details: previous work; cited from earlier work
P-gp, sequence (P08183 whole entry): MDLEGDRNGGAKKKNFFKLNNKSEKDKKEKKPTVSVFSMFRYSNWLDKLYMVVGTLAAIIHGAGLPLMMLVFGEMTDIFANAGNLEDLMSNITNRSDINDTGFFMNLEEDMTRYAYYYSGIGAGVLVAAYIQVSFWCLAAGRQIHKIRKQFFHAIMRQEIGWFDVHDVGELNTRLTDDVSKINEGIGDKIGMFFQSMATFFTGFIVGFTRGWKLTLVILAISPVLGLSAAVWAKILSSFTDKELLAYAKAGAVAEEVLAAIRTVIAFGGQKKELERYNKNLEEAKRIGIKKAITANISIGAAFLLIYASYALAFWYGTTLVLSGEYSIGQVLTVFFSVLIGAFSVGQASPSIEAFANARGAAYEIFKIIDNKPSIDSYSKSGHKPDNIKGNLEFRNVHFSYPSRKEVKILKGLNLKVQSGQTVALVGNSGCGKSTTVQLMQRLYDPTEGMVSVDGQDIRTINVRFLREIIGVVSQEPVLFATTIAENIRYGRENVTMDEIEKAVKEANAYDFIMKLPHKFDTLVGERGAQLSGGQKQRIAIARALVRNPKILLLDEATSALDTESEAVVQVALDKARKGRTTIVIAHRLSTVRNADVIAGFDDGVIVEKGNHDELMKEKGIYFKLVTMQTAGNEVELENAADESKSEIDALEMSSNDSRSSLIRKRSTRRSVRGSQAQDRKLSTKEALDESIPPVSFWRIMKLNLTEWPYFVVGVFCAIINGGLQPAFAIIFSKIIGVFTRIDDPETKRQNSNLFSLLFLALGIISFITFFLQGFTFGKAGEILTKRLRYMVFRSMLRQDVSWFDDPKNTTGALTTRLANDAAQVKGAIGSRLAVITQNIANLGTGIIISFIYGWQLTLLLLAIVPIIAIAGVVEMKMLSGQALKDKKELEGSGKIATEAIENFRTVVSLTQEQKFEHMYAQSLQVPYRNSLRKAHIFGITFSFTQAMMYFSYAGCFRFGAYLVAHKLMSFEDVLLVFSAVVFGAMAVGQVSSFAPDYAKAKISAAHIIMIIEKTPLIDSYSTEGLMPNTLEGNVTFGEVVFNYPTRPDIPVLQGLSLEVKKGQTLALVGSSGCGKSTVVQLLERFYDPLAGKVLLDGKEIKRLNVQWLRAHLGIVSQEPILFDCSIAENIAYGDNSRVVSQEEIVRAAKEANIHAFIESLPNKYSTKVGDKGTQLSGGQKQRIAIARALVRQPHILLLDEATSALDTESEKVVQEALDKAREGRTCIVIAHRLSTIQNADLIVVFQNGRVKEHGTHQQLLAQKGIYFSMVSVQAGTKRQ

With COc1cccc2c1C(=O)c1c(O)c3c(c(O)c1C2=O)C[C@@](O)(C(=O)CO)C[C@@H]3O[C@H]1C[C@H](N)[C@H](O)[C@H](C)O1 [Doxirubicine, doxorubicin] the IC50 (Colo320DM cells; Homo sapiens, COLO 320DM) was 6.99 ± 1.23 µM, the IC50 ([1]; Sus scrofa) was 10.1 ± 2.33 µM and the IC50 (HT29 cells) was 3.88 ± 2.13 µM. It also gave an IC50 (Caco2 cells) of 2.85 ± 0.712 µM, an IC50 (HCT15 cells; Homo sapiens, HCT-15) of 1.51 ± 0.226 µM and an IC50 ([2]; Sus scrofa) of 0.739 ± 0.082 µM.

Compound CS(=O)(=O)CCNCc1ccc(-c2ccc3ncnc(Nc4ccc(OCc5cccc(F)c5)c(Cl)c4)c3c2)o1 [Lapatinib, lapatinib] has an IC50 ([1]; Sus scrofa) of 0.39 ± 0.21 µM and an IC50 ([2]; Sus scrofa) of 0.499 ± 0.087 µM.

Compound O=C1[O][Pt]2([NH][C@@H]3CCCC[C@H]3[NH]2)[O]C1=O [Oxiliplatin, oxaliplatin] has an IC50 (Colo320DM cells) of 10.5 ± 1.71 µM, an IC50 ([1]; System: Organoid (without transplantation into tissue)) of 18 ± 4.72 µM and an IC50 (HCT15 cells) of 15.5 ± 4.99 µM. The IC50 [2] was 8.61 ± 3.38 µM.

For vitamin A, the “P-gp inhibition and drug uptake” value (P-gp) is listed as “inhibit P-gp and increase drug uptake” and the “potency of irinotecan in combination with predicted P-gp modulator” value ([2]; ex vivo CRC platform, FIGS. 8B-8C, one-way ANOVA p<0.05) is listed as “significantly increased the potency irinotecan”.
